Test results taken from patent US8058242B2, “Chimeric proteins with natriuretic activity” (The University of Queensland, priority 2004, dated 2011).
Like-named read-outs stand apart in the source and are kept apart here. Positions of bridges follow the written chain, without caps; N, C: chain ends. Non-standard residues stand in square brackets, D forms with d. Residues, ends and D or L forms follow the SMILES beside them. Sec = N[C@@H](C[SeH])C(=O)O

Key:
[1] = biological target: T1, Natriuretic Peptide Receptor-A (NPR-A) signaling in MDCK cells (Canis lupus familiaris, UniProt A0A8I3MHU3); format: cell-based, canine; conditions: for EC50: read-out: EC50 (M) ± Standard Error
T1 sequence (A0A8I3MHU3 32-1060): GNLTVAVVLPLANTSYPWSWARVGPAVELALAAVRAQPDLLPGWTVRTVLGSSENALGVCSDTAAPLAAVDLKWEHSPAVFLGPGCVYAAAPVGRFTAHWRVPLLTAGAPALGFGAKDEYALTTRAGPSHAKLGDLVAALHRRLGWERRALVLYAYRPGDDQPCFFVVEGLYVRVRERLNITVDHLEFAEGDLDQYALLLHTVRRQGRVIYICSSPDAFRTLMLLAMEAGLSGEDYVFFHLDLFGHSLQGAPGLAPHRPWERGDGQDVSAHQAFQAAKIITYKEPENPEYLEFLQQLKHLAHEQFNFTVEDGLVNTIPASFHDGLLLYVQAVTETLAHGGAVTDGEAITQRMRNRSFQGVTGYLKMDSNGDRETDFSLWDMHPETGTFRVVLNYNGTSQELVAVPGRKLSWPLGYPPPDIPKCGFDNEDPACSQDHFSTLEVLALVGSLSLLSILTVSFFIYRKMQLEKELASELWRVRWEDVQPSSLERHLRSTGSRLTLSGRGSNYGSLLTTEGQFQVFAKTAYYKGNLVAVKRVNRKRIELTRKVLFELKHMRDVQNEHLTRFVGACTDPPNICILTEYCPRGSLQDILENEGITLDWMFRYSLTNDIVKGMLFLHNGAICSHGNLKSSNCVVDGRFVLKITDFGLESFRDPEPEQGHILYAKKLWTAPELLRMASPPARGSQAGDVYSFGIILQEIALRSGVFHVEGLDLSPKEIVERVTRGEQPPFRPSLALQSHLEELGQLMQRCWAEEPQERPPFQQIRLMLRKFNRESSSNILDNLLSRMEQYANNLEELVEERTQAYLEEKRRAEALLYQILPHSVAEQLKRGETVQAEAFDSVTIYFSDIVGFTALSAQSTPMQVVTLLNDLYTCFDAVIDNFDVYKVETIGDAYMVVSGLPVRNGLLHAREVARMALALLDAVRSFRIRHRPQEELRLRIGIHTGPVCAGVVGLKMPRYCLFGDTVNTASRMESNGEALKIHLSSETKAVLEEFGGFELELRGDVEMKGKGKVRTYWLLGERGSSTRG

[2] = test system: conscious rabbits; experiment: Blood pressure and heart rate in conscious rabbits, intravenous infusion dose-response (Example 8)
[3] = stimulation of cGMP accumulation in MDCK cells
[4] = after a 2 hour recovery period, Table 10B

## CC[C@H](C)[C@@H]1NC(=O)[C@H](CCCNC(=N)N)NC(=O)[C@H](CC(=O)O)NC(=O)[C@H](CC(C)C)NC(=O)[C@@H]2CCCN2C(=O)[C@H](Cc2ccccc2)NC(=O)CNC(=O)[C@H](Cc2ccccc2)NC(=O)[C@@H](NC(=O)CNC(=O)[C@H](CCCCN)NC(=O)[C@H](CO)NC(=O)[C@@H](NC(=O)[C@H](CCCCN)NC(=O)[C@H](CO)NC(=O)[C@H](CC(=O)O)NC(=O)[C@@H](N)CO)[C@@H](C)CC)CSSC[C@@H](C(=O)N[C@@H](CC(N)=O)C(=O)N[C@@H](CCCNC(=N)N)C(=O)N[C@H](C(=O)N[C@@H](CCSC)C(=O)N[C@@H](CCC(N)=O)C(=O)N[C@@H](CC(N)=O)C(=O)N2CCC[C@H]2C(=O)N2CCC[C@H]2C(=O)N[C@@H](CCCCN)C(=O)N[C@@H](CCCCN)C(=O)N[C@@H](Cc2ccccc2)C(=O)N[C@@H](CO)C(=O)NCC(=O)N[C@@H](CCC(=O)O)C(=O)O)[C@@H](C)CC)NC(=O)CNC(=O)[C@H](CC(C)C)NC(=O)CNC(=O)[C@H](CO)NC(=O)[C@H](C(C)C)NC(=O)[C@H](CO)NC(=O)CNC1=O [Peptide K7S6-TNPc] (H-SDSKISKGCFGFPLDRIGSVSGLGCNRIMQNPPKKFSGE-OH; disulfide 9-25; N-terminus assumed)
[1]; [3]
  −Log10 EC50 (pEC50) ± Standard Error: 7.567 ± 0.4397
  EC50: 5.24e-08 M

## CC[C@H](C)[C@H](NC(=O)[C@H](CCCCN)NC(=O)[C@H](CO)NC(=O)[C@H](CC(=O)O)NC(=O)[C@@H](N)CO)C(=O)NCC(=O)N[C@@H](CC(=O)O)C(=O)NCC(=O)N[C@H]1CSSC[C@@H](C(=O)N[C@@H](CC(N)=O)C(=O)N[C@@H](CCCNC(=N)N)C(=O)N[C@H](C(=O)N[C@@H](CCSC)C(=O)N[C@@H](CCC(N)=O)C(=O)N[C@@H](CC(N)=O)C(=O)N2CCC[C@H]2C(=O)N2CCC[C@H]2C(=O)N[C@@H](CCCCN)C(=O)N[C@@H](CCCCN)C(=O)N[C@@H](Cc2ccccc2)C(=O)N[C@@H](CO)C(=O)NCC(=O)N[C@@H](CCC(=O)O)C(=O)O)[C@@H](C)CC)NC(=O)CNC(=O)[C@H](CC(C)C)NC(=O)CNC(=O)[C@H](CO)NC(=O)[C@H](C(C)C)NC(=O)[C@H](CO)NC(=O)CNC(=O)[C@H]([C@@H](C)CC)NC(=O)[C@H](CCCNC(=N)N)NC(=O)[C@H](CC(=O)O)NC(=O)[C@H](CC(C)C)NC(=O)[C@@H]2CCCN2C(=O)[C@H](Cc2ccccc2)NC(=O)CNC(=O)[C@H](Cc2ccccc2)NC1=O [Peptide N7D-TNPc] (H-SDSKIGDGCFGFPLDRIGSVSGLGCNRIMQNPPKKFSGE-OH; disulfide 9-25; N-terminus assumed)
[1]; [3]
  −Log10 EC50 (pEC50) ± Standard Error: 7.585 ± 0.005
  EC50: 2.62e-08 M

## CC[C@H](C)[C@H](NC(=O)[C@H](CCCCN)NC(=O)[C@H](CO)NC(=O)[C@H](CC(=O)O)NC(=O)[C@@H](N)CO)C(=O)NCC(=O)N[C@@H](CC(N)=O)C(=O)NCC(=O)N[C@H]1CSSC[C@@H](C(=O)N[C@@H](CC(N)=O)C(=O)N[C@@H](CCCNC(=N)N)C(=O)N[C@H](C(=O)N[C@@H](CCSC)C(=O)N[C@@H](CCC(N)=O)C(=O)N[C@@H](CC(N)=O)C(=O)N[C@@H](CCCNC(=N)N)C(=O)N2CCC[C@H]2C(=O)N[C@@H](CCCCN)C(=O)N[C@@H](CCCCN)C(=O)N[C@@H](Cc2ccccc2)C(=O)N[C@@H](CO)C(=O)NCC(=O)N[C@@H](CCC(=O)O)C(=O)O)[C@@H](C)CC)NC(=O)CNC(=O)[C@H](CC(C)C)NC(=O)CNC(=O)[C@H](CO)NC(=O)[C@H](C(C)C)NC(=O)[C@H](CO)NC(=O)CNC(=O)[C@H]([C@@H](C)CC)NC(=O)[C@H](CCCNC(=N)N)NC(=O)[C@H](CC(=O)O)NC(=O)[C@H](CC(C)C)NC(=O)[C@@H]2CCCN2C(=O)[C@H](Cc2ccccc2)NC(=O)CNC(=O)[C@H](Cc2ccccc2)NC1=O [Peptide P32R-TNPc] (H-SDSKIGNGCFGFPLDRIGSVSGLGCNRIMQNRPKKFSGE-OH; disulfide 9-25; N-terminus assumed)
[1]; [3]
  −Log10 EC50 (pEC50) ± Standard Error: 7.680 ± 0.5322
  EC50: 9.91e-08 M

## CC[C@H](C)[C@H](NC(=O)[C@H](CCCCN)NC(=O)[C@H](CO)NC(=O)[C@H](CC(=O)O)NC(=O)[C@@H](N)CO)C(=O)NCC(=O)N[C@@H](CC(N)=O)C(=O)NCC(=O)N[C@H]1C[Se][Se]C[C@@H](C(=O)N[C@@H](CC(N)=O)C(=O)N[C@@H](CCCNC(=N)N)C(=O)N[C@H](C(=O)N[C@@H](CCSC)C(=O)N[C@@H](CCC(N)=O)C(=O)N[C@@H](CC(N)=O)C(=O)N2CCC[C@H]2C(=O)N2CCC[C@H]2C(=O)N[C@@H](CCCCN)C(=O)N[C@@H](CCCCN)C(=O)N[C@@H](Cc2ccccc2)C(=O)N[C@@H](CO)C(=O)NCC(=O)N[C@@H](CCC(=O)O)C(=O)O)[C@@H](C)CC)NC(=O)CNC(=O)[C@H](CC(C)C)NC(=O)CNC(=O)[C@H](CO)NC(=O)[C@H](C(C)C)NC(=O)[C@H](CO)NC(=O)CNC(=O)[C@H]([C@@H](C)CC)NC(=O)[C@H](CCCNC(=N)N)NC(=O)[C@H](CC(=O)O)NC(=O)[C@H](CC(C)C)NC(=O)[C@@H]2CCCN2C(=O)[C@H](Cc2ccccc2)NC(=O)CNC(=O)[C@H](Cc2ccccc2)NC1=O [Sec2-TNPc] (H-SDSKIGNG[Sec]FGFPLDRIGSVSGLG[Sec]NRIMQNPPKKFSGE-OH; diselenide 9-25)
[1]
  −Log10 EC50 (pEC50) ± Standard Error: 7.463 ± 0.4096
  EC50: 6.39e-08 M

## CC[C@H](C)[C@H](NC(=O)[C@H](CCCCN)NC(=O)[C@H](CO)NC(=O)[C@H](CC(=O)O)NC(=O)[C@@H](N)CO)C(=O)NCC(=O)N[C@@H](CC(N)=O)C(=O)NCC(=O)N[C@H]1CSSC[C@@H](C(=O)N[C@@H](CC(N)=O)C(=O)N[C@@H](CCCNC(=N)N)C(=O)N[C@H](C(=O)N[C@@H](CCSC)C(=O)N[C@@H](CCC(N)=O)C(=O)N[C@@H](CC(N)=O)C(=O)N2CCC[C@H]2C(=O)N2CCC[C@H]2C(=O)N[C@@H](CCCCN)C(=O)N[C@@H](CCCCN)C(=O)N[C@@H](Cc2ccccc2)C(=O)N[C@@H](CO)C(=O)NCC(=O)N[C@@H](CCC(=O)O)C(=O)O)[C@@H](C)CC)NC(=O)CNC(=O)[C@H](CC(C)C)NC(=O)CNC(=O)[C@H](CO)NC(=O)[C@H](C(C)C)NC(=O)[C@H](CO)NC(=O)[C@H](CCCNC(=N)N)NC(=O)[C@H]([C@@H](C)CC)NC(=O)[C@H](CCCNC(=N)N)NC(=O)[C@H](CC(=O)O)NC(=O)[C@H](CC(C)C)NC(=O)[C@@H]2CCCN2C(=O)[C@H](Cc2ccccc2)NC(=O)CNC(=O)[C@H](Cc2ccccc2)NC1=O [TNPc R-18] (H-SDSKIGNGCFGFPLDRIRSVSGLGCNRIMQNPPKKFSGE-OH; disulfide 9-25; N-terminus assumed)
[1]; [3]
  −Log10 EC50 (pEC50) ± Standard Error: 6.777 ± 0.5812
  EC50: 7e-07 M
[2]; Table 10B
  MAP at final dose: 63.5 mm Hg
[2]; [4]
  Recovery (MAP): 67.4 mm Hg
  Recovery Delta SED (MAP): 3.8 ± 1.6 mm Hg
[2]; final dose, Table 10B, groups 2B and 2C
  Treatment Effect, change of mean blood pressure during the infusion: −9.0 mm Hg
[2]; highest dose
  reduction of MAP compared to vehicle, in words: did significantly reduce MAP
